The text below walks through data of ChEMBL document CHEMBL1152560, “Substituted 2-arylbenzothiazoles as kinase inhibitors: hit-to-lead optimization” (Bioorg Med Chem, 2009).

In assay [1] the target is CDK8/Cyclin C (Homo sapiens) (UniProt P49336+P24863). Put plainly: Residual activity of CDK8/Cyclin C at 0.1 uM by microplate scintillation counting. It is filed as protein-complex assay.
For assay [2], the target named is Protein kinase C eta type (Homo sapiens) (UniProt P24723). The experiment in a line: Residual activity of PKCeta at 1 uM by microplate scintillation counting.
For assay [3], the target named is Tyrosine-protein kinase Fes/Fps (Homo sapiens) (UniProt P07332). Put plainly: Residual activity of FES at 0.1 uM by microplate scintillation counting.
The target of assay [4] is T1, Inhibitor of nuclear factor kappa-B kinase subunit alpha (Homo sapiens) (UniProt O15111).
T1 sequence (whole entry): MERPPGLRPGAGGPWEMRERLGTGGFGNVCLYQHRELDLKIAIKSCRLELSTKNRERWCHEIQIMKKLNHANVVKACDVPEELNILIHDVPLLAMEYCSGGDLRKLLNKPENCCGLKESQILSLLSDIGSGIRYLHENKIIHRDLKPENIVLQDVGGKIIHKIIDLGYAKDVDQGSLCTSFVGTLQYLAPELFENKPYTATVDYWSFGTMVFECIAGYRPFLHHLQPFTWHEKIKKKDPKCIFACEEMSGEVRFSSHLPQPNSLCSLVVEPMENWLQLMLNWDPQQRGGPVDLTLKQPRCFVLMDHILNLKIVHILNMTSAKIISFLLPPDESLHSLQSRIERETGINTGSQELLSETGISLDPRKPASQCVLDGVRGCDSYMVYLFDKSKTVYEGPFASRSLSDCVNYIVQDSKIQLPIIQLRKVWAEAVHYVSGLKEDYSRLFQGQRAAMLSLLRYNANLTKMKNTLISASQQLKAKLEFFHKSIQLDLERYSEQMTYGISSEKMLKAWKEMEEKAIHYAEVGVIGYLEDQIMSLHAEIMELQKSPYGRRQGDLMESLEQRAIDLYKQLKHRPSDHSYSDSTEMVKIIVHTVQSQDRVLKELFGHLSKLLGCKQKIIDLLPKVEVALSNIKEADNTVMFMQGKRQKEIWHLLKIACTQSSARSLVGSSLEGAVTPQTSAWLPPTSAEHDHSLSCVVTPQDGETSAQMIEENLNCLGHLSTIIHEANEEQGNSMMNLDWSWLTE
The experiment in a line: Residual activity of IKKalpha at 1 uM by microplate scintillation counting.

Assay [5] addresses Calcium/calmodulin-dependent protein kinase type II subunit alpha (Homo sapiens) (UniProt Q9UQM7). The experiment in a line: Residual activity of CAMK2A at 0.1 uM by microplate scintillation counting.
Assay [6] addresses Homeodomain-interacting protein kinase 3 (Homo sapiens) (UniProt Q9H422). Put plainly: Residual activity of HIPK3 at 10 uM by microplate scintillation counting.
Assay [7] concerns the target T2, Ephrin type-A receptor 1 (Homo sapiens) (UniProt P21709).
T2 sequence (whole entry): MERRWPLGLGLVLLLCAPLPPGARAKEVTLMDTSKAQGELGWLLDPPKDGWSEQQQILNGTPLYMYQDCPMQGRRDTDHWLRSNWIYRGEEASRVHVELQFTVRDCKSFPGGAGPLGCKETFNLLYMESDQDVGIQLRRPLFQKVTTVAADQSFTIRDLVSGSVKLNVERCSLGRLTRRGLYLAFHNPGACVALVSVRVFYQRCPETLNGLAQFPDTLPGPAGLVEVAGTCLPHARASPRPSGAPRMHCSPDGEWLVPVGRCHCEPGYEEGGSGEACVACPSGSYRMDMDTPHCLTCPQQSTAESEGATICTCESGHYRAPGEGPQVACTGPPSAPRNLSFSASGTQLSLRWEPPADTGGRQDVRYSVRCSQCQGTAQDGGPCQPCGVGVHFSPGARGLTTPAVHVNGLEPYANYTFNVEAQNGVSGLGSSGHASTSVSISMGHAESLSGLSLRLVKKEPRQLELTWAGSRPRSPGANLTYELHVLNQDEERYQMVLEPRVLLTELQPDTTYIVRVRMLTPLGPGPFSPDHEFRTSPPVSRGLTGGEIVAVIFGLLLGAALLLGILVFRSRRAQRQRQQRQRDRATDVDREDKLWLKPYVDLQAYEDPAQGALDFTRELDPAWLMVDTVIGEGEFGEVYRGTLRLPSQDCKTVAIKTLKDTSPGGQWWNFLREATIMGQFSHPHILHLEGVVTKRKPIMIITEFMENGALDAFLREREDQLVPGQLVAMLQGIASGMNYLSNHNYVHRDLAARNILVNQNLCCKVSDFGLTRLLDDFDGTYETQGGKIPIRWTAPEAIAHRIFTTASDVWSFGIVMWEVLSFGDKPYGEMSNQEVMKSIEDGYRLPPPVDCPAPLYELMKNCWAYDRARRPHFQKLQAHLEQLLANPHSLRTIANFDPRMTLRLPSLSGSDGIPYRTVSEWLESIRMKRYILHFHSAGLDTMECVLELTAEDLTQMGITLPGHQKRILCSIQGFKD
The experiment in a line: Residual activity of EPHA1 at 1 uM by microplate scintillation counting.

Assay [8] has as its target T3, Dual specificity protein kinase TTK (Homo sapiens) (UniProt P33981).
T3 sequence (whole entry): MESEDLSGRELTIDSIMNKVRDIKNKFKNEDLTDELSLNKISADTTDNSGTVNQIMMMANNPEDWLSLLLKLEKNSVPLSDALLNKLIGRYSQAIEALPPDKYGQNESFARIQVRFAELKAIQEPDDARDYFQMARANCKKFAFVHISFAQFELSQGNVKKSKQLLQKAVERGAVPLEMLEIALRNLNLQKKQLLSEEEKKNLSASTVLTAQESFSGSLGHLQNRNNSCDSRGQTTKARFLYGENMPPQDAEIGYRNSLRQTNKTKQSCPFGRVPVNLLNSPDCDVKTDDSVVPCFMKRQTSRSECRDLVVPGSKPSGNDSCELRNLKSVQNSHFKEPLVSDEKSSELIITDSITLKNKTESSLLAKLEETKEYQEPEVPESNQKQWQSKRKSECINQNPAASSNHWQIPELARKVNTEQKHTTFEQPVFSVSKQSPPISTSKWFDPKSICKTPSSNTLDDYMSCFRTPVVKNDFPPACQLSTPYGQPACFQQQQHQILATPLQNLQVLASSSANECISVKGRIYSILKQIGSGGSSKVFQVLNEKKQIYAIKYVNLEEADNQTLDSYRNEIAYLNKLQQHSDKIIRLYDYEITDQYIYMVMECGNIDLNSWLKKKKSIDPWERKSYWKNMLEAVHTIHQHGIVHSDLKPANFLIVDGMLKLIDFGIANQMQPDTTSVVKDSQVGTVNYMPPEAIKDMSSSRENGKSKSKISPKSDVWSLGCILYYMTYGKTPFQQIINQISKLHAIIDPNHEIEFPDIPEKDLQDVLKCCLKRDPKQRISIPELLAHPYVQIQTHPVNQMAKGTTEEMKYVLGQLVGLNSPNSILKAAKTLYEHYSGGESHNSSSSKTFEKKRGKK
Put plainly: Residual activity of TTK at 0.1 uM by microplate scintillation counting.

Chain of Tyrosine-protein kinase Fes/Fps (Homo sapiens) (P07332 whole entry): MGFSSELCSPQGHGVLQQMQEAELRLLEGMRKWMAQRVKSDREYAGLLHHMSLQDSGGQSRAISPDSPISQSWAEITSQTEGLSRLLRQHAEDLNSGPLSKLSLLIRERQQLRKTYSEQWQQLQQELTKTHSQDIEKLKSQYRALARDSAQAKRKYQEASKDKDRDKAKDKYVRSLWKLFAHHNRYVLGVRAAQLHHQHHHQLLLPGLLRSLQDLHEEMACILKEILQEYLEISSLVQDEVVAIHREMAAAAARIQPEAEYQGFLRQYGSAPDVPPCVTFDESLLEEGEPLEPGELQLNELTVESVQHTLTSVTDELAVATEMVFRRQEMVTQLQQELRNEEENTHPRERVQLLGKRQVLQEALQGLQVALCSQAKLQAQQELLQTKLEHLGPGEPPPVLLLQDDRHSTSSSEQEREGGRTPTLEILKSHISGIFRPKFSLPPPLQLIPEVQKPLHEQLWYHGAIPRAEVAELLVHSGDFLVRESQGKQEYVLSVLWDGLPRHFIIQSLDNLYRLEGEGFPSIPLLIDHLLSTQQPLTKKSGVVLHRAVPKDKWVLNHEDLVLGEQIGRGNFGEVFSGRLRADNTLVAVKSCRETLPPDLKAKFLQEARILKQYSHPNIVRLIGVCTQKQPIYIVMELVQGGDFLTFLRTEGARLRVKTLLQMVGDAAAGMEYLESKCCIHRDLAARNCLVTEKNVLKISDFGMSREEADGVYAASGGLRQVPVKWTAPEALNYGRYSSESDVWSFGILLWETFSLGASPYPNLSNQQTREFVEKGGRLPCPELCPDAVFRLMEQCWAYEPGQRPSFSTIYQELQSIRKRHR
Chain of Homeodomain-interacting protein kinase 3 (Homo sapiens) (Q9H422 whole entry, looked up): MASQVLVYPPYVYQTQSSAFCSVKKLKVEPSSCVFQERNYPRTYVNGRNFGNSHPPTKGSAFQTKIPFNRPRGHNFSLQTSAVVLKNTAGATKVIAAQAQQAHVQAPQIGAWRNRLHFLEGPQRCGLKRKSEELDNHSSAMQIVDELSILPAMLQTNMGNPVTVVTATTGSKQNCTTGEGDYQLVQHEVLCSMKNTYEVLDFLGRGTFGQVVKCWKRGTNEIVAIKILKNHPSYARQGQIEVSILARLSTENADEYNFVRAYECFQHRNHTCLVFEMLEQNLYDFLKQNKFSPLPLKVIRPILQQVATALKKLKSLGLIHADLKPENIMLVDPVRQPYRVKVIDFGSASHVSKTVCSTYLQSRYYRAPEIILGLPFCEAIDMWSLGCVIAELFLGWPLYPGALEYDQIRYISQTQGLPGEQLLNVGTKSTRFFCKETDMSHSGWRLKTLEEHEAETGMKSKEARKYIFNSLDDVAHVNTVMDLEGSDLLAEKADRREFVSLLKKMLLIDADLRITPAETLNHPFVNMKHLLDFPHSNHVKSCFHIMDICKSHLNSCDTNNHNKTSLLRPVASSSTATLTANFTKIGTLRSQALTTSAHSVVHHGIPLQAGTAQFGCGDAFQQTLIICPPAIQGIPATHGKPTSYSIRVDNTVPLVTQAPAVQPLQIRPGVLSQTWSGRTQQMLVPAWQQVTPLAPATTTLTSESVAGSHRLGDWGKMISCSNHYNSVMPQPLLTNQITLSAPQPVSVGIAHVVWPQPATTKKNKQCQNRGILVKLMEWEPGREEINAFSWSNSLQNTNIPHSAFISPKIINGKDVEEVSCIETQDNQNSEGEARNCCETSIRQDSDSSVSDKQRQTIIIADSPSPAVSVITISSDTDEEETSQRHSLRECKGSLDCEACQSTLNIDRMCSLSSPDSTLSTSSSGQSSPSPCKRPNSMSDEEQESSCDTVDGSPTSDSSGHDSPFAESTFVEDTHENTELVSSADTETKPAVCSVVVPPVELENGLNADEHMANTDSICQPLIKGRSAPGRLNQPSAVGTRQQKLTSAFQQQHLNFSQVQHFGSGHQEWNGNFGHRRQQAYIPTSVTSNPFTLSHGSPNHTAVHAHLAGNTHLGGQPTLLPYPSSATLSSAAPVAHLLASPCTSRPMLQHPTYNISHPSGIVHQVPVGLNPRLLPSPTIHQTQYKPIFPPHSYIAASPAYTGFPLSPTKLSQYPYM
Chain of Calcium/calmodulin-dependent protein kinase type II subunit alpha (Homo sapiens) (Q9UQM7 whole entry): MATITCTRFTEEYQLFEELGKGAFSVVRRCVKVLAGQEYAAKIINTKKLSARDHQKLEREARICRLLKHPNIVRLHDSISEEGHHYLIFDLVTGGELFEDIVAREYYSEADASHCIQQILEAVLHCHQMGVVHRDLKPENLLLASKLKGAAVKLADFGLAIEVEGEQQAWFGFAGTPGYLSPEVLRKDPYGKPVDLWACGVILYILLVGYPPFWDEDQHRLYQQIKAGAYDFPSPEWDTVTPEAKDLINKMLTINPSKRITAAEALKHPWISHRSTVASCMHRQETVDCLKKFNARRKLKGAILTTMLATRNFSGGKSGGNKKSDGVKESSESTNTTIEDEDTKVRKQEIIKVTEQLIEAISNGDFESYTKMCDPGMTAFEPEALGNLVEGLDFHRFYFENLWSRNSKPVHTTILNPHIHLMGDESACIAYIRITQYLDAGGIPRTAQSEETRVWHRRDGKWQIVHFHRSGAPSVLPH
Chain of Protein kinase C eta type (Homo sapiens) (P24723 whole entry): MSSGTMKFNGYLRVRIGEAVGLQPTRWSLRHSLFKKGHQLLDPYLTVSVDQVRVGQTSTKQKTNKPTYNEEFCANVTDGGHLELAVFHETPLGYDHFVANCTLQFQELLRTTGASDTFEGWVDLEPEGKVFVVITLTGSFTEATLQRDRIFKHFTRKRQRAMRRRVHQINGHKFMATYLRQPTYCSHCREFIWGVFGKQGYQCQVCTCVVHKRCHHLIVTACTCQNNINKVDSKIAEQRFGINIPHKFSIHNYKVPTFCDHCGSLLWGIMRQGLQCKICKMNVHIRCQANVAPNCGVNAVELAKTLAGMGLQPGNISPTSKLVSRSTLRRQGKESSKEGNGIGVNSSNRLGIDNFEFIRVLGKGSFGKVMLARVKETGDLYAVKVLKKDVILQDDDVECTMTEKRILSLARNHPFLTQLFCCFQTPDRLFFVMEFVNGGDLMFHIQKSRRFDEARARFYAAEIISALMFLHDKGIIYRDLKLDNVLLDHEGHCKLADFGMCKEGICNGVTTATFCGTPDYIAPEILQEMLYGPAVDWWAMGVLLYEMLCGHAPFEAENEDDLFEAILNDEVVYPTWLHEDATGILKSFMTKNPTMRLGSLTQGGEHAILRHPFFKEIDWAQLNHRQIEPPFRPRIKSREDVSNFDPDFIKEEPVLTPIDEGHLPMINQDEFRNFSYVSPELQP

For orientation: residual activity means the signal under treatment as a percentage of the control signal. For `COc1cc2c(Oc3ccc(-c4nc5ccccc5s4)cc3F)ncnc2cc1OCCCN1CCN(C)CC1`, the residual activity in assay [1] stood at 79%; in assay [2], 97%; in assay [3], 101%; in assay [4], 99%; in assay [5], 91%; in assay [6] it was 142%. Also, the residual activity in assay [7] came out at 145%; in assay [8], 82%.
With `COc1cc2c(Oc3ccc(-c4nc5ccccc5s4)cc3)ncnc2cc1OCCCN1CCN(C)CC1`, the residual activity in assay [1] worked out at 87%; in assay [2], 92%; in assay [3] it was 102%; in assay [4] it was 98%; in assay [5], 80%; in assay [6], 132%. The results for the residual activity in assay [7] and in assay [8] were 140% and 89%, respectively.
Regarding `COc1cc2c(Oc3ccc(-c4nc5ccccc5s4)cc3)ncnc2cc1OCCCN1CCCC1`, the residual activity in assay [1] stood at 94%; in assay [2], 122%; in assay [3], 107%; in assay [4] it was 95%; in assay [5] it was 85%; in assay [6] it was 147%. Besides, the residual activity is 147% in assay [7] and 99% in assay [8].
